{
  "source": "ChEMBL document CHEMBL6103629",
  "about": "(J Med Chem, 2025)",
  "key": {"[1]": {"system": "LoVo", "test": "Induction of apoptosis in human LoVo cells assessed as viable cells at 1 uM incubated for 24 hrs by Annexin-V-FITC-PI staining based flow cytometric analysis (reference value: 72.1 %)", "assay_type": "functional", "details": "read-out: Activity; call rule not given here"}, "[2]": {"system": "LoVo", "test": "Induction of apoptosis in human LoVo cells assessed as early apoptotic cells at 1 uM incubated for 24 hrs by Annexin-V-FITC-PI staining based flow cytometric analysis (reference value: 13.7 %)", "assay_type": "functional"}, "[3]": {"system": "LoVo", "test": "Induction of apoptosis in human LoVo cells assessed as late apoptotic cells at 1 uM incubated for 24 hrs by Annexin-V-FITC-PI staining based flow cytometric analysis (reference value: 13.2 %)", "assay_type": "functional"}, "[4]": {"system": "LoVo", "test": "Induction of apoptosis in human LoVo cells assessed as necrotic cells at 3 uM incubated for 24 hrs by Annexin-V-FITC-PI staining based flow cytometric analysis (reference value: 0.97 %)", "assay_type": "functional"}, "[5]": {"target": "Serine/threonine-protein kinase mTOR (Homo sapiens, UniProt P42345)", "test": "Inhibition of mTOR (unknown origin) preincubated for 15 mins and measured after 60 mins by Z-LYTE screening"}, "[6]": {"target": "Phosphatidylinositol 4,5-bisphosphate 3-kinase catalytic subunit alpha isoform (Homo sapiens, UniProt P42336)", "sequence (P42336 whole entry, canonical isoform)": "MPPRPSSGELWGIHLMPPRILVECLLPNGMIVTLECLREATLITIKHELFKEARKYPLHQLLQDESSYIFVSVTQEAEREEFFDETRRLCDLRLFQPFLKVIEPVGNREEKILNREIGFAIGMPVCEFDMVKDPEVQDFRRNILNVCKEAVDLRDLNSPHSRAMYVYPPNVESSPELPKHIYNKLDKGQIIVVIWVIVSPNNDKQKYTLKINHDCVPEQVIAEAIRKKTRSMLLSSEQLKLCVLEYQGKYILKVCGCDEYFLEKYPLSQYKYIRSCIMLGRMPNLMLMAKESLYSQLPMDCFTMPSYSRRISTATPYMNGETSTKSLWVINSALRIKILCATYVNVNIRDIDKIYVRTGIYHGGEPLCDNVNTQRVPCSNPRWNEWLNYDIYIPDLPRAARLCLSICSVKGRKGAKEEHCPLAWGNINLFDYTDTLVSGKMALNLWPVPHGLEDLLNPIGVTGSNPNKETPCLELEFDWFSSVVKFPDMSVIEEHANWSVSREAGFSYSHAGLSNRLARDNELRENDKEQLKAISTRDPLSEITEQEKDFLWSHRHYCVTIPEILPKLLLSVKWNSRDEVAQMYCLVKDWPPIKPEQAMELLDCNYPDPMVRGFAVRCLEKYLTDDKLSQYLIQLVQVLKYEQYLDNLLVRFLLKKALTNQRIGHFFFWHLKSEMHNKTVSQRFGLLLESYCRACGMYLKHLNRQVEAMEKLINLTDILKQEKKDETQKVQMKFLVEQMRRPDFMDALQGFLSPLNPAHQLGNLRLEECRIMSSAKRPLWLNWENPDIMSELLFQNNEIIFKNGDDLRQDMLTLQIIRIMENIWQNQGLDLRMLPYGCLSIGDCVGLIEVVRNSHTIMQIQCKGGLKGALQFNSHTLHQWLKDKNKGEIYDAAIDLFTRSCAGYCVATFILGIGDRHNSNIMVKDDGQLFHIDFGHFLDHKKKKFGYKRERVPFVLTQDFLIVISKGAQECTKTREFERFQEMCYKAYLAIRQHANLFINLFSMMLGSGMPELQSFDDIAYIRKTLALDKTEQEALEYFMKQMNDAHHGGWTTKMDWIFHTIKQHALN", "test": "Inhibition of PI3Kalpha (unknown origin) preincubated for 15 mins and measured after 60 mins by Z-LYTE screening"}, "[7]": {"test": "Inhibition of DNA-PK (unknown origin) preincubated for 15 mins and measured after 60 mins by Z-LYTE screening", "design": "species or system Homo sapiens"}, "[8]": {"test": "Dissociation constant, pKa of compound", "assay_type": "physicochemical"}, "[9]": {"test": "Lipophilicity, logP of compound", "assay_type": "physicochemical", "details": "octanol/water"}, "[10]": {"test": "Permeability across apical to basolateral side in human Caco-2 cells at 0.1 to 10 uM incubated for 120 mins by LC-MS/MS analysis", "assay_type": "ADME, cell-based", "details": "caco-2, 2 h, dose 0.1-10 µM"}, "[11]": {"test": "Permeability across apical to basolateral side in human MDCK-MDR1 cells at 0.1 to 10 uM incubated for 120 mins by LC-MS/MS analysis", "assay_type": "ADME, cell-based, Canis lupus familiaris", "details": "dog, mdck-mdr1, 2 h, dose 0.1-10 µM"}, "[12]": {"test": "Plasma protein binding in human at 1 uM incubated for 5 hrs in HTD dialysis in the presence of verapamil by LC-MS/MS analysis relative to control", "assay_type": "ADME, cell-free", "details": "read-out: PPB (converted)"}, "[13]": {"test": "Drug metabolism in CD-1 mouse plasma by LC-MS/MS analysis", "assay_type": "ADME, cell-free", "details": "5 h, 1 µM"}, "[14]": {"test": "Drug metabolism in Sprague-Dawley rat plasma by LC-MS/MS analysis", "assay_type": "ADME, cell-free", "details": "5 h, 1 µM"}, "[15]": {"test": "Stability in CD-1 mouse plasma assessed as half life by LC-MS/MS analysis", "assay_type": "ADME, cell-free"}, "[16]": {"test": "Stability in Sprague-Dawley rat plasma assessed as half life by LC-MS/MS analysis", "assay_type": "ADME, cell-free"}, "[17]": {"test": "Stability in human plasma assessed as half life by LC-MS/MS analysis", "assay_type": "ADME, cell-free"}, "[18]": {"target": "CYP1A2 (Homo sapiens, UniProt P05177)", "sequence (P05177 whole entry)": "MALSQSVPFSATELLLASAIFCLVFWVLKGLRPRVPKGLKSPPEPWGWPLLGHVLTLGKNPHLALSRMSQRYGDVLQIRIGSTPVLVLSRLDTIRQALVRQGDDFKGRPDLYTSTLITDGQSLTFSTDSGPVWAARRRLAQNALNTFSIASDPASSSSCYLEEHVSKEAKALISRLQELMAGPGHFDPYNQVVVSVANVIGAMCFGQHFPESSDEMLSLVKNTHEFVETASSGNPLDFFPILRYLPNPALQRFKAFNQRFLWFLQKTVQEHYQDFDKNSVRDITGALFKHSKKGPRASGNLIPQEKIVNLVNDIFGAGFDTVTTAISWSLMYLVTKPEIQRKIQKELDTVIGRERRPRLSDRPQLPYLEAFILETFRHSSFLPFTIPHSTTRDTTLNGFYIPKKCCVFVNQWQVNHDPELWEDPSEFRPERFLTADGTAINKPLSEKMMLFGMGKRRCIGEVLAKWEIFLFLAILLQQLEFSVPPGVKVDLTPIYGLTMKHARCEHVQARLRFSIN", "test": "Inhibition of recombinant human CYP1A2 assessed as residual activity at 1 uM in the presence of NADPH incubated for 60 mins by LC-MS/MS analysis relative to control", "assay_type": "ADME", "details": "read-out: Activity"}, "[19]": {"target": "CYP2C9 (Homo sapiens, UniProt P11712)", "sequence (P11712 whole entry)": "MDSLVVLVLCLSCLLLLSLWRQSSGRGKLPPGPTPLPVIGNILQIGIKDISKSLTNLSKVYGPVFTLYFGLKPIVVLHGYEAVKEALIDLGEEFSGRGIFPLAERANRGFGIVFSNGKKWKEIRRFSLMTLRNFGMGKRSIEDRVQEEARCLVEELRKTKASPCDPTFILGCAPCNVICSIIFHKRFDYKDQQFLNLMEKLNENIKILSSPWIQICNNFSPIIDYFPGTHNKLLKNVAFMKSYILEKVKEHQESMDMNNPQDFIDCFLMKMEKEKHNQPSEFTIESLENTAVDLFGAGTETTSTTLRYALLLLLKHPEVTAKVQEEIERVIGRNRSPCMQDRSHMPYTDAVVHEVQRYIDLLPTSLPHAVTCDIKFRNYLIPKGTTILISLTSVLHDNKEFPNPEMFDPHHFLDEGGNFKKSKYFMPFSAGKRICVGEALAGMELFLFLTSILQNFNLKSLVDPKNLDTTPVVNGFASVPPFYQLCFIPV", "test": "Inhibition of recombinant human CYP2C9 assessed as residual activity at 1 uM in the presence of NADPH incubated for 60 mins by LC-MS/MS analysis relative to control", "assay_type": "ADME", "details": "read-out: Activity"}, "[20]": {"target": "CYP3A4 (Homo sapiens, UniProt P08684)", "sequence (P08684 whole entry)": "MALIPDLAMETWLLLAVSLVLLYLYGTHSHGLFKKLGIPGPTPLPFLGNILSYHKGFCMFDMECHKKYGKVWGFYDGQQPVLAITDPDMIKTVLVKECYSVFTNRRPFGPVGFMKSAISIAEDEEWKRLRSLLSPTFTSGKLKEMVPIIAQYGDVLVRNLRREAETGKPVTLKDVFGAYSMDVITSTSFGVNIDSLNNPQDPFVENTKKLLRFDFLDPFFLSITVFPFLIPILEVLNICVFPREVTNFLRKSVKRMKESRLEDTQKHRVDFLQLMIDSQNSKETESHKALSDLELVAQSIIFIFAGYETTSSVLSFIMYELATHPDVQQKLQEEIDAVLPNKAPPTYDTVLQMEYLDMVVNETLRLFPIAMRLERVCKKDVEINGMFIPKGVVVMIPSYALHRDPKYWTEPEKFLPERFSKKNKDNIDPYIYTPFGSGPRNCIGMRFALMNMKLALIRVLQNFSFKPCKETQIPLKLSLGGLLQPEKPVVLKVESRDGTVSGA", "test": "Inhibition of recombinant human CYP3A4 assessed as residual activity at 1 uM in the presence of NADPH incubated for 60 mins by LC-MS/MS analysis relative to control", "assay_type": "ADME", "details": "read-out: Activity"}, "[21]": {"target": "Cytochrome P450 1A2 (Homo sapiens, UniProt P05177)", "sequence (P05177 whole entry)": "as the sequence (P05177 whole entry) above", "test": "Inhibition of CYP1A2 in human liver microsomes in the presence of NADPH incubated for 60 mins by LC-MS/MS analysis", "assay_type": "ADME, Microsome"}, "[22]": {"target": "Cytochrome P450 2B6 (Homo sapiens, UniProt P20813)", "sequence (P20813 whole entry)": "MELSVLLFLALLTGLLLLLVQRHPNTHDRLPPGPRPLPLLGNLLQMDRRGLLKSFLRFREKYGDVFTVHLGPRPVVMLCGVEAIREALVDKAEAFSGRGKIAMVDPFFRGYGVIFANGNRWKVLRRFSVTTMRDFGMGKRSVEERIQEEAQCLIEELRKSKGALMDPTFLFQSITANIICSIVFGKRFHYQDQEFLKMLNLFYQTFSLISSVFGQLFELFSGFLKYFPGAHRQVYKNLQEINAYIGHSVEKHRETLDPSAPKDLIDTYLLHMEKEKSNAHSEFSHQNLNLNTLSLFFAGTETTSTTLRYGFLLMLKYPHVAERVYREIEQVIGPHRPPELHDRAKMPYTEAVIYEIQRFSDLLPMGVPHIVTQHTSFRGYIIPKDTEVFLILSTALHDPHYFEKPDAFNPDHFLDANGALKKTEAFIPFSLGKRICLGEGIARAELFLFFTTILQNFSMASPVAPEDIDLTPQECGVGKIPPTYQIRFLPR", "test": "Inhibition of CYP2B6 in human liver microsomes in the presence of NADPH incubated for 60 mins by LC-MS/MS analysis", "assay_type": "ADME, Microsome"}, "[23]": {"target": "Cytochrome P450 2D6 (Homo sapiens, UniProt P10635)", "sequence (P10635 whole entry)": "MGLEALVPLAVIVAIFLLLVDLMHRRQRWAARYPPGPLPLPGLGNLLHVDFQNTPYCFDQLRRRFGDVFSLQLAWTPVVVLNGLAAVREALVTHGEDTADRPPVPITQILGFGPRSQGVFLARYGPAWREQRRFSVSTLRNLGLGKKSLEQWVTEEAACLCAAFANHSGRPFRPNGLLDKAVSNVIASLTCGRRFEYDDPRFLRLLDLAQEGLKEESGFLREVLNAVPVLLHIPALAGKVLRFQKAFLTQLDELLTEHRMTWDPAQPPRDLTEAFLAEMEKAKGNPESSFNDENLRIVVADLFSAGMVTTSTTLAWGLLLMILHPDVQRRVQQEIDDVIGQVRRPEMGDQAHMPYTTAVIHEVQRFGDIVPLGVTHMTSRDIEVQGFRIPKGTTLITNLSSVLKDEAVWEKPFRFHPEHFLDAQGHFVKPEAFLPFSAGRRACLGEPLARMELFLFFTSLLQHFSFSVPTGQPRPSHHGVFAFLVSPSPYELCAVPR", "test": "Inhibition of CYP2D6 in human liver microsomes in the presence of NADPH incubated for 60 mins by LC-MS/MS analysis", "assay_type": "ADME, Microsome"}, "[24]": {"target": "Cytochrome P450 2C9 (Homo sapiens, UniProt P11712)", "sequence (P11712 whole entry)": "as the sequence (P11712 whole entry) above", "test": "Inhibition of CYP2C9 in human liver microsomes in the presence of NADPH incubated for 60 mins by LC-MS/MS analysis", "assay_type": "ADME, Microsome"}, "[25]": {"target": "Cytochrome P450 3A4 (Homo sapiens, UniProt P08684)", "sequence (P08684 whole entry)": "as the sequence (P08684 whole entry) above", "test": "Inhibition of CYP3A4 in human liver microsomes using testosterone as substrate and in presence of NADPH incubated for 60 mins by LC-MS/MS analysis", "assay_type": "ADME, Microsome"}, "[26]": {"test": "Induction of CYP1A2 mRNA expression in human primary hepatocyte isolated from YND donor at 0.1 to 10 uM incubated for 72 hrs by real-time PCR analysis", "assay_type": "ADME, cell-based", "details": "hepatocytes, dose 0.1-10 µM"}, "[27]": {"test": "Induction of CYP3A4 mRNA expression in human primary hepatocyte isolated from DZM donor at 0.1 to 10 uM incubated for 72 hrs by real-time PCR analysis", "assay_type": "ADME, cell-based", "details": "hepatocytes, dose 0.1-10 µM"}, "[28]": {"test": "Toxicity in Beagle dogs assessed as effect on cardiovascular system at 5 to 20 mg/kg, po administrated as single dose upto 24 hrs", "assay_type": "organism-based, Canis lupus familiaris", "details": "dog, in vivo, dose 5-20 mg/kg"}, "[29]": {"test": "Drug distribution in Sprague-Dawley rat small intestine at 5 mg/kg, IG administrated as single dose measured after 0.5 hrs by LC-MS/MS analysis", "assay_type": "ADME, organism-based", "details": "in vivo, po"}, "[30]": {"test": "Drug distribution in Sprague-Dawley rat liver at 5 mg/kg, IG administrated as single dose measured after 0.5 hrs by LC-MS/MS analysis", "assay_type": "ADME, organism-based", "details": "in vivo, po"}, "[31]": {"test": "Drug distribution in Sprague-Dawley rat brain at 5 mg/kg, IG administrated as single dose measured after 0.5 hrs by LC-MS/MS analysis", "assay_type": "ADME, organism-based", "details": "po, read-out: Ct"}, "[32]": {"system": "JeKo-1", "test": "Antitumor activity against human JeKo-1 cells xenografted in female CB17 SCID mouse assessed as tumor growth inhibition at 30 mg/kg BID, po measured every 2 days for 24 days relative to control", "assay_type": "functional", "details": "JeKo-1, 576 h, time 24 day, read-out: TGI"}, "[33]": {"test": "Toxicity in female CB17 SCID mouse xenografted with human JeKo-1 cells assessed as body weight at 40 mg/kg BID, po administered as 3 days on and 4 days off schedule for 24 days", "assay_type": "organism-based", "details": "in vivo, 576 h, time 24 day"}, "[34]": {"system": "LoVo", "test": "Antitumor activity against human LoVo cells xenografted in female Balb/c nude mouse assessed as tumor growth inhibition at 10 mg/kg QD, po measured every 3 days for 25 days relative to control", "assay_type": "functional", "details": "600 h, time 25 day, read-out: TGI"}, "[35]": {"test": "Toxicity in female Balb/c nude mouse xenografted with human NCI-H1703 cells assessed as body weight at 40 mg/kg QD, po measured every 3 days for 25 days at 10 to 60 mg/kg QD, po measured every 3 days for 28 days", "assay_type": "organism-based", "details": "in vivo, 672 h, time 28 day"}},
  "data": [
    {"smiles": "Cc1nn(-c2cccnc2)c(C)c1-c1cc(N2CC3CCC(C2)O3)nc2c(-c3ccn[nH]3)cnn12.O=C(O)/C=C/C(=O)O", "values": [
      {"measurement": "viability at 1 µM", "setting": "[1]", "value": 65, "unit": "%"},
      {"measurement": "Activity", "setting": "[2]", "value": 18.2, "unit": "%"},
      {"measurement": "Activity", "setting": "[3]", "value": 10, "unit": "%"},
      {"measurement": "Activity", "setting": "[4]", "value": 2.65, "unit": "%"},
      {"measurement": "IC50", "setting": "[5]", "value": 1.82, "unit": "µM"},
      {"measurement": "IC50", "setting": "[6]", "value": 3.58, "unit": "µM"},
      {"measurement": "IC50", "setting": "[7]", "value": 0.24, "unit": "µM"},
      {"measurement": "pKa", "setting": "[8]", "value": 4.25},
      {"measurement": "logP", "setting": "[9]", "value": 0.7},
      {"measurement": "permeability", "setting": "[10]", "value": "Permeable"},
      {"measurement": "permeability", "setting": "[11]", "value": "Permeable"},
      {"measurement": "fraction unbound at 5 h, 1 µM", "setting": "[12]", "value": 0.075},
      {"measurement": "Drug metabolism", "setting": "[13]", "value": "metabolite_notdetected"},
      {"measurement": "Drug metabolism", "setting": "[14]", "value": "metabolite_notdetected"},
      {"measurement": "half-life", "setting": "[15]", "value": "> 2", "unit": "h"},
      {"measurement": "half-life", "setting": "[16]", "value": "> 2", "unit": "h"},
      {"measurement": "half-life", "setting": "[17]", "value": "> 2", "unit": "h"},
      {"measurement": "activity at 1 h, 1 µM", "setting": "[18]", "value": 105, "unit": "%"},
      {"measurement": "activity at 1 h, 1 µM", "setting": "[19]", "value": 102, "unit": "%"},
      {"measurement": "activity at 1 h, 1 µM", "setting": "[20]", "value": 73.3, "unit": "%"},
      {"measurement": "IC50", "setting": "[21]", "value": "> 100", "unit": "µM"},
      {"measurement": "IC50", "setting": "[22]", "value": "> 100", "unit": "µM"},
      {"measurement": "IC50", "setting": "[23]", "value": "> 100", "unit": "µM"},
      {"measurement": "IC50", "setting": "[24]", "value": 32.8, "unit": "µM"},
      {"measurement": "IC50", "setting": "[25]", "value": 41.5, "unit": "µM"},
      {"measurement": "Activity", "setting": "[26]", "value": "Not_active"},
      {"measurement": "Activity", "setting": "[27]", "value": "Active"},
      {"measurement": "Activity", "setting": "[28]", "value": "Non-toxic"},
      {"measurement": "Drug uptake", "setting": "[29]", "value": "Active"},
      {"measurement": "Drug uptake", "setting": "[30]", "value": "Active"},
      {"measurement": "concentration at 0.5 h", "setting": "[31]", "value": 4.47, "unit": "ng/g"},
      {"measurement": "inhibition in vivo at 30 mg/kg", "setting": "[32]", "value": 96.4, "unit": "%"},
      {"measurement": "Activity", "setting": "[33]", "value": "Non-toxic"},
      {"measurement": "inhibition in vivo at 10 mg/kg", "setting": "[34]", "value": 13.9, "unit": "%"},
      {"measurement": "Activity", "setting": "[35]", "value": "Toxic"}
    ]}
  ]
}
